Laboratory results reported in patent publication US11976083B2, “Inhibitors of peptidylarginine deiminases” (Gilead Sciences, Inc., priority 2020, dated 2024).

Molecular target: T1, human PAD4 (Homo sapiens, UniProt Q9UM07)
T1 construct: human PAD4 (NM_012387), A2-P663, was PCR amplified; His-SUMO (N, cleaved yes); made in house; host or cells: E. coli BL21(DE3)
Assay: In vitro PAD4 BAEE biochemical assay
Details: BAEE substrate 3 mM, 5 nM PAD4, 2 mM calcium chloride; geometric mean of multiple experiments
In short: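 Recombinant human PAD4 (5 nM final) with 2 mM CaCl2 was preincubated with compound 30 min at 25 °C in MOPS buffer pH 7.6, then reacted with 3 mM BAEE for 2 h at 25 °C. After EDTA stop, released ammonia was detected by o-phthalaldehyde/DTT fluorescence (ex 405/em 535 nm); IC50 from four-parameter fit, geometric mean.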

T1 sequence (Q9UM07 2-663): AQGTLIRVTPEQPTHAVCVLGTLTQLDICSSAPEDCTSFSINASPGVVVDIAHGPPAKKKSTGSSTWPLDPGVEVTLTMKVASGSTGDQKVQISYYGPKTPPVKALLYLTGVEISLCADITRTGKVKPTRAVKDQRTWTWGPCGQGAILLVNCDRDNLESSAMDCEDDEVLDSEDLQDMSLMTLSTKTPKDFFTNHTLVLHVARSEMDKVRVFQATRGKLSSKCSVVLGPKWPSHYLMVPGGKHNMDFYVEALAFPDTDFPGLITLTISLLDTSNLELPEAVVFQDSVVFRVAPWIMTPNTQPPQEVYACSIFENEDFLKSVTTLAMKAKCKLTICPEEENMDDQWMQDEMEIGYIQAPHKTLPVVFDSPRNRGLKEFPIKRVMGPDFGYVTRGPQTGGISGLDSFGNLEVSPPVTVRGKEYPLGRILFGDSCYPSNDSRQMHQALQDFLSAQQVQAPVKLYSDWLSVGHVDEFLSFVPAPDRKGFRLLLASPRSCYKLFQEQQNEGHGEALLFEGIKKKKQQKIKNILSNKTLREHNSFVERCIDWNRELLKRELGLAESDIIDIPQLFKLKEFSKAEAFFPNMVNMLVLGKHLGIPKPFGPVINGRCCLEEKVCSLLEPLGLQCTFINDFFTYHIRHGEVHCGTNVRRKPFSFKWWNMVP

Row | IC50 [nM] | SMILES
1 | 10 | COc1cc(C(=O)N2C[C@H](N)[C@@H]3CC[C@H]2C3)cc2nc(-c3cc4ccc5nc4n3CCCCCC[C@@](c3ccccn3)(C(F)F)C(=O)N[C@@H]5C)n(C)c12 [Example 890, (8~{S},11~{R})-17-[5-[(1~{S},4~{R},5~{R})-4-amino-2-azabicyclo[3.2.1]octane-2-carbonyl]-7-methoxy-1-methyl-benzimidazol-2-yl]-8-(difluoromethyl)-11-methyl-8-(2-pyridyl)-1,10,19-triazatricyclo [10.5.2.0^{15,18}]nonadeca-12(19),13,15(18), 16-tetraen-9-one]
2 | 28 | CCn1c(-c2cc3ccc4nc3n2CCCCC[C@]2(F)C[C@H]2C(=O)N[C@@H]4C)nc2cc(C(=O)N3C[C@H](N)[C@@H]4CC[C@H]3C4)cc(F)c21 [Example 938, (2~{R},5~{S},7~{S})-14-[5-[(1~{S),4~{R},5~{R})-4-amino-2-azabicyclo[3.2.1]octane-2-carbonyl]-1-ethyl-7-fluoro-benzimidazol-2-yl]-7-fluoro-2-methyl-3,13,19-triazatetracyclo[11.5.2.0^ {5,7}.0^{16,20}]icosa-1(19), 14,16(20),17-tetraen-4-one]
3 | 71 | COc1cc(C(=O)N2CC[C@@H](OC)[C@@H](N)C2)cc2nc(-c3cc4ccc5nc4n3CCCCCc3ccnc(C4CC4)c3C(=O)N[C@@H]5C)n(C)c12 [Example 663, (2~{R})-17-[5-[(3~{S),4~ {R})-3-amino-4-methoxy-piperidine-1-carbonyl]-7-methoxy-1-methyl-benzimidazol-2-yl]-6-cyclopropyl-2-methyl-3,7,16,22-tetrazatetracyclo[14.5.2.0^ {5,10}.0^{19,23}] tricosa-1(22),5,7,9,17,19(23), 20-heptaen-4-one]
4 | 251 | COc1cc(C(=O)N2[C@H]3CC[C@@H]2[C@H](N)C3)cc2nc(-c3cc4ccc5nc4n3C[C@H]3[C@@H](COCCC(=O)N[C@@H]5C)C3(C)C)n(C)c12 (single isomer, unassigned) [Example 11, (3˜{S},5˜{R},12˜{R})-18-[5-[(1˜{R},2˜{R},4˜{S})-2-amino-7-azabicyclo[2.2.1]heptane-7-carbonyl]-7-methoxy-1-methyl-benzimidazol-2-yl]-4,4,12-trimethyl-7-oxa-1,11,20-triazatetracyclo[11.5.2.0^{3,5}.0^{16,19}]icosa-13(20),14,16(19),7-tetraen-10-one]
5 | 26 | C[C@H]1NC(=O)c2ccc(C3CC3)nc2CCCCCn2c(-c3nc4cc(C(=O)N5C[C@H](N)[C@@H]6CC[C@H]5C6)cc(F)c4n3C3CC3)cc3ccc1nc32 [Example 813, (2˜{R})-17-[5-[(1˜{S},4˜{R},5˜{R})-4-amino-2-azabicyclo[3.2.1]octane-2-carbonyl]-1-cyclopropyl-7-fluoro-benzimidazol-2-yl]-8-cyclopropyl-2-methyl-3,9,16,22-tetrazatetracyclo[14.5.2.0^{5,10}.0^{19,23}]tricosa-1(21),5(10),6,8,17,19,22-heptaen-4-one]
6 | 914 | COc1cc(C(=O)N2CCC[C@@H](N)C2)cc2nc(-c3cc4ccc5nc4n3CCOCCOCCOC5C)n(C)c12 (some centres unmarked) [Example 298, [(3~{R})-3-amino-1-piperidyl]-[7-methoxy-1-methyl-2-(11-methyl-4,7,10-trioxa-1,19-diazatricyclo[10.5.2.0^{15,18}]nonadeca-12(19),13,15(18),16-tetraen-17-yl)benzimidazol-5-yl]methanone]
7 | 87 | COc1cc(C(=O)N[C@H]2CNCC[C@@H]2F)cc2nc(-c3cc4ccc5nc4n3CCCCCC(C)(C)C(=O)N[C@@H]5C)n(C)c12 [Example 76, ~{N}-[(3~{S),4~{S})-4-fluoro-3-piperidyl]-7-methoxy-1-methyl-2-[(10~{R})-7,7,10-trimethyl-8-oxo-1,9,18-triazatricyclo[9.5.2.0^{14,17}]octadeca-11(18),12,14(17),15-tetraen-16-yl]benzimidazole-5-carboxamide]
8 | 128 | C[C@H]1NC(=O)C(C)(C)CCCCCCn2c(-c3nc4cc(C(=O)N[C@H]5CNCC[C@@H]5F)c(F)cc4n3CCOC(F)F)cc3ccc1nc32 [Example 502, 1-[2-(difluoromethoxy)ethyl]-6-fluoro-~{N}-[(3~ {S},4~{S})-4-fluoro-3-piperidyl]-2-[(11~{R})-8,8,11-trimethyl-9-oxo-1,10,19-triazatricyclo[10.5.2.0^ {15,18}]nonadeca-12(19),13,15(18),16-tetraen-17-yl]benzimidazole-5-carboxamide]
9 | 21 | C[C@H]1NC(=O)[C@@H]2C[C@@]2(F)CCCCCn2c(-c3nc4cc(C(=O)N5C[C@H](N)[C@@H]6CC[C@H]5C6)cc(F)c4n3C3C[C@H]3F)cc3ccc1nc32 (some centres unmarked) [Example 952, (2~{R},5~{S},7~{S})-14-[5-[(1~{S},4~{R},5~{R})-4-amino-2-azabicyclo[3.2.1]octane-2-carbonyl]-7-fluoro-1-[(1~{R},2~{R})-2-fluorocyclopropyl]benzimidazol-2-yl]-7-fluoro-2-methyl-3,13,19-triazatetracyclo [11.5.2.0^{5,7}.0^{16,20}] icosa-1(19),14,16(20),17-tetraen-4-one]
10 | 16 | C[C@@H]1c2ccc3cc(-c4nc5cc(C(=O)N6C[C@H](N)[C@@H]7CC[C@H]6C7)cc(F)c5n4C4CC4)n(c3n2)CC(F)(F)CCC[C@H]2C[C@H]2C(=O)N1C [Example 683, (2~{R},5~{R},7~{S})-14-[5-[(1~{S},4~{R},5~ {R})-4-amino-2-azabicyclo[3.2.1]octane-2-carbonyl]-1-cyclopropyl-7-fluoro-benzimidazol-2-yl]-11,11-difluoro-2,3-dimethyl-3,13,19-triazatetracyclo [11.5.2.0^{5,7}.0^{16,20}] icosa-1(19),14,16(20), 17-tetraen-4-one]
11 | 72 | COc1cc(C(=O)N2C[C@H](N)[C@@H]3CC[C@H]2C3)cc2nc(-c3cc4ccc5nc4n3CCCCCc3c(F)cc(F)cc3C(=O)N[C@@H]5C)n(C)c12 [Example 894, (2~{R})-17-[5-[(1~{S},4~ {R},5~{R})-4-amino-2-azabicyclo[3.2.1]octane-2-carbonyl]-7-methoxy-1-methyl-benzimidazol-2-yl]-7,9-difluoro-2-methyl-3,16,22-triazatetracyclo [14.5.2.0^{5,10).0^{19,23}] tricosa-1(22),5(10),6,8,17, 19(23),20-heptaen-4-one]
12 | 32 | COc1cc(C(=O)N2[C@H]3CC[C@@H]2[C@H](N)C3)cc2nc(-c3cc4ccc5nc4n3CCCCCC[C@H](OC)C(=O)N[C@@H]5C)c(C)n12 (single isomer, unassigned) [Example 335, (8˜{S},11˜{R})-17-[7-[(1˜{R},2˜{R},4˜{S})-2-amino-7-azabicyclo[2.2.1]heptane-7-carbonyl]-5-methoxy-3-methyl-imidazo[1,2-a]pyridin-2-yl]-8-methoxy-11-methyl-1,10,19-triazatricyclo[10.5.2.0^{15,18}]nonadeca-12(19),13,15(18),16-tetraen-9-one]
13 | 74 | COc1cc(C(=O)N2CC[C@@H](OC)[C@@H](N)C2)cc2nc(-c3cc4ccc5nc4n3CC(F)(F)CCC[C@@H]3C[C@@]3(C)C(=O)N[C@@H]5C)n(C)c12 [Example 585, (2~{R},5~{R},7~{R})-14-[5-[(3~{S},4~{R})-3-amino-4-methoxy-piperidine-1-carbonyl]-7-methoxy-1-methyl-benzimidazol-2-yl]-11,11-difluoro-2,5-dimethyl-3,13,19-triazatetracyclo[11.5.2.0^ {5,7}.0^{16,20}]icosa-1(19),14,16(20),17-tetraen-4-one]
14 | 76 | COc1cc(C(=O)N2CCC[C@@H](N)[C@H]2C(F)F)cc2nc(-c3cc4ccc5nc4n3CCCCCCC(C)(C)C(=O)N[C@@H]5C)n(C)c12 [Example 644, (11~{R})-17-[5-[(2~{S), 3~{R})-3-amino-2-(difluoromethyl)piperidine-1-carbonyl]-7-methoxy-1-methyl-benzimidazol-2-yl]-8,8,11-trimethyl-1,10,19-triazatricyclo [10.5.2.0^{15,18}]nonadeca-12(19),13,15(18),16-tetraen-9-one]
15 | 221 | COc1cc(C(=O)N[C@H]2CNCC[C@@H]2F)cc2nc(-c3cc4ccc5nc4n3CCCCCCC3(CC3)C(=O)N[C@@H]5C)n(C)c12 [Example 74, ~{N}-[(3~{S},4~{S})-4-fluoro-3-piperidyl]-7-methoxy-1-methyl-2-[(11~{R})-11-methyl-9-oxo-spiro[1,10,19-triazatricyclo[10.5.2.0^{15,18}]nonadeca-12(19),13,15(18),16-tetraene-8,1′-cyclopropane]-17-yl]benzimidazole-5-carboxamide]
16 | 82 | COc1cc(C(=O)N[C@H]2CNCC[C@@H]2F)cc2nc(-c3cc4ccc5nc4n3CCCCC[C@@H]3CC[C@H]3C(=O)N[C@@H]5C)n(C)c12 (single isomer, unassigned) [Example 487, ˜{N}-[(3˜{S},4˜{S})-4-fluoro-3-piperidyl]-7-methoxy-1-methyl-2-[(2˜{R},5˜{R},8˜{R})-2-methyl-4-oxo-3,14,20-triazatetracyclo[12.5.2.0^{5,8}.0^{17,21}]henicosa-1(20),15,17(21),18-tetraen-15-yl]benzimidazole-5-carboxamide]
17 | 45 | CCc1c(-c2cc3ccc4nc3n2CCCCCCCC(=O)N[C@@H]4C)nn2cc(C(=O)N3[C@H]4CC[C@@H]3[C@H](N)C4)ccc12 [Example 252, 17-[5-[(1˜{R},2˜{R},4˜{S})-2-amino-7-azabicyclo[2.2.1]heptane-7-carbonyl]-3-ethylpyrazolo[1,5-a]pyridin-2-yl]-11-methyl-1,10,19-triazatricyclo[10.5.2.0^{15,18}]nonadeca-12(19),13,15(18),16-tetraen-9-one]
